The results in this text go back to PMC4893617 (Scientific Reports, 2016).

Counter-ions that a name gives are not always drawn.

Assay [1] deals with T1, ChuaMOX (mandelonitrile oxidase) (Chamberlinius hualienensis, UniProt A0A173MZJ8).
T1 construct: native enzyme purified from millipede bodies without guts; ORF 593 residues incl; 17-residue signal peptide; predicted mature 62,818 Da; 67 kDa SDS-PAGE, 65 kDa gel filtration; monomeric, glycosylated, FAD
It counts as biochemical.

Assay [2] deals with T1, ChuaMOX (mandelonitrile oxidase). The experiment in a line: biochemical. More on the design: Oxidase activity of purified native ChuaMOX, ABTS read-out, pH 5, compound added at 1 mM. As to conditions: for remaining activity at 1000 µM: read-out: % of control remaining. As to the method:
Enzymatic activity decreased in conditions approaching neutral pH, and it was lowest at a pH of 7 (Fig. 1c). After one hour of incubation at 25 °C, 80% of the ChuaMOX activity remained over a range of pH values between 3 and 10 (Fig. 1d). […] After one hour of incubation at pH 8, 80% of the activity remained between 25 °C and 50 °C, and all activity was lost at 70 °C (Fig. 1f). […] (Table 1). The enzyme required [compound left out] as a substrate rather than [compound left out] (see Supplementary Table S3). […] The chemicals (see Supplementary Table S5) were purchased from various suppliers (Sigma-Aldrich, Dojindo, Alfa Aesar, and Tokyo Chemical Industries) or synthesized as described below and used as test substrates, inhibitors, and metal salts. Nitriles were prepared from their corresponding aldehydes by way of bisulfite adducts according to Young et al.[23].

Assay [3] shares this target. Type of assay: binding.

T1 sequence (A0A173MZJ8 entry or part of it): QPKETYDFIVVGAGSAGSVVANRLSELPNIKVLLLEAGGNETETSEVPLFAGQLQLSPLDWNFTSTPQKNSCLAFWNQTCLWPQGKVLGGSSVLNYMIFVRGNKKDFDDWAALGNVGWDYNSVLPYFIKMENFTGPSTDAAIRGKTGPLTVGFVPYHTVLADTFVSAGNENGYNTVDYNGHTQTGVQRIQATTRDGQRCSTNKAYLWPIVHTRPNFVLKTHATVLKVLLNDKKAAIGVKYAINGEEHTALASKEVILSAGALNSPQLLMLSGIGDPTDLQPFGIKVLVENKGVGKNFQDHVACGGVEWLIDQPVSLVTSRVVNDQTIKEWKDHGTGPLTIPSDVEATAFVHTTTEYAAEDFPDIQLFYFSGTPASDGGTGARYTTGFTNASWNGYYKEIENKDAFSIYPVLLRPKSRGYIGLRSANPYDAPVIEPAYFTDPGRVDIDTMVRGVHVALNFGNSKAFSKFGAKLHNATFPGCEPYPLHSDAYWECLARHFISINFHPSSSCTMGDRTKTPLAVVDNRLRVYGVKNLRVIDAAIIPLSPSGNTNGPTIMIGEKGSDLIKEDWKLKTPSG

On to `N#CC(O)c1ccccc1` (racemic) [racemic mandelonitrile], for which, in assay [1], the Km (in general, the concentration of substrate that gives half-maximal velocity) is 2100 µM. On to `c1cnc2c(c1)ccc1cccnc12` [1,10-Phenanthroline], for which the remaining activity at 1000 µM in assay [2] was 84.1%.

With `c1ccc(-c2ccccn2)nc1` [2,2'-Bipyridyl], the remaining activity at 1000 µM in assay [2] came to 87.3%. In the case of `Oc1cccc2cccnc12` [8-Hydroxyquinoline], the “% of control remaining” value in assay [2] (pH 5, standard assay, 1000 µM, inhibitor) is 56.0%. With `O=C(O)CI` [Iodoacetic acid], the remaining activity at 1000 µM in assay [2] was 71.4%. On the same count and under the same terms, for `CC(C)NNC(=O)c1ccncc1` [Iproniazid] the value was 80%; for `NNC(=O)c1ccncc1` [Isoniazid], 88%; for `CCN1C(=O)C=CC1=O` [N-Ethylmaleimide], 96.8%.

Consider `C#CCN(C)Cc1ccccc1` [Pargyline], for which the remaining activity at 1000 µM in assay [2] is 100%.

Take `NNC(N)=O` [Semicarbazide hydrochloride]: the remaining activity at 1000 µM in assay [2] came out at 92%. Consider `Cc1cc2nc3c(=O)[nH]c(=O)nc-3n(C[C@H](O)[C@H](O)[C@H](O)COP(=O)(O)OP(=O)(O)OC[C@H]3O[C@@H](n4cnc5c(N)ncnc54)[C@H](O)[C@@H]3O)c2cc1C` [flavin adenine dinucleotide], for which the “thin layer chromatography of the prosthetic group; UV-visible spectrum of purifi” value in assay [3] is “Thin layer chromatography (TLC) identified the prosthetic group as flavin adenine dinucleotide (FAD)”.
